According to PubChem BioAssay (NCI):
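All cell lines were grown in 96-well plates and treated with compound for 48 hours. GI50 = concentration required for 50% inhibition of growth. Definition used: TGI = concentration required for complete inhibition of growth.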

How the values were obtained:
Assay in all cases: inhibition of tumour cell growth, NCI panel, 48 h
[1] = test system: A498 renal
[2] = test system: A549 NSCLC
[3] = test system: ACHN renal
[4] = test system: BT-549 breast
[5] = test system: COLO 205 colon
[6] = test system: DU-145 prostate
[7] = test system: HCC-2998 colon
[8] = test system: HCT-116 colon
[9] = test system: HCT-15 colon
[10] = test system: HOP-62 NSCLC
[11] = test system: HOP-92 NSCLC
[12] = test system: HS 578T breast
[13] = test system: HT29 colon
[14] = test system: K-562 leukemia
[15] = test system: KM12 colon
[16] = test system: M14 melanoma
[17] = test system: MCF7 breast
[18] = test system: MDA-MB-231 breast
[19] = test system: MDA-MB-435
[20] = test system: MOLT-4 leukemia
[21] = test system: NCI-H226 lung
[22] = test system: NCI-H460 lung
[23] = test system: NCI-H522 lung
[24] = test system: NCI/ADR-RES ovarian
[25] = test system: OVCAR-3 ovarian
[26] = test system: OVCAR-4 ovarian
[27] = test system: OVCAR-5 ovarian
[28] = test system: OVCAR-8 ovarian
[29] = test system: PC-3 prostate
[30] = test system: RPMI-8226 leukemia
[31] = test system: RXF 393 renal
[32] = test system: SF-268 CNS
[33] = test system: SK-MEL-2 melanoma
[34] = test system: SK-MEL-28 melanoma
[35] = test system: SK-MEL-5 melanoma
[36] = test system: SK-OV-3 ovarian
[37] = test system: SN12C renal
[38] = test system: SNB-19 CNS
[39] = test system: SNB-75 CNS
[40] = test system: SR leukemia
[41] = test system: SW-620 colon
[42] = test system: T-47D breast
[43] = test system: TK-10 renal
[44] = test system: U251 CNS
[45] = test system: UACC-257 melanoma
[46] = test system: UACC-62 melanoma

## C#CC(F)(F)[C@]1(O)CC[C@H]2[C@@H]3CCC4=CC(=O)CCC4=C3[C@@H](c3ccc(C(C)=O)cc3)C[C@@]21C
[1]
  GI50: 23.1 µM
  TGI: 84.8 µM
[2]
  GI50: 25.9 µM
  TGI: > 100 µM
[3]
  GI50: 10.1 µM
  TGI: 97 µM
[4]
  GI50: 15.5 µM
  TGI: 55.2 µM
[5]
  GI50: 13.1 µM
  TGI: 38.6 µM
[6]
  GI50: 20.1 µM
  TGI: 95.1 µM
[7]
  GI50: 31.2 µM
  TGI: > 100 µM
[8]
  GI50: 14.1 µM
  TGI: 42.6 µM
[9]
  GI50: 14.3 µM
  TGI: 56.8 µM
[10]
  GI50: 18.7 µM
  TGI: 73.8 µM
[11]
  GI50: 0.0456 µM
  TGI: 0.356 µM
[12]
  GI50: 17 µM
  TGI: > 95.2 µM
[13]
  GI50: 0.109 µM
  TGI: > 50.5 µM
[14]
  GI50: 8.64 µM
  TGI: > 100 µM
[15]
  GI50: 0.123 µM
  TGI: 52.9 µM
[16]
  GI50: 16.9 µM
  TGI: > 84.9 µM
[17]
  GI50: 2.64 µM
  TGI: 63 µM
[18]
  GI50: 15.7 µM
  TGI: > 87.5 µM
[19]
  GI50: 13.9 µM
  TGI: 52 µM
[20]
  GI50: 3.9 µM
  TGI: 63.4 µM
[21]
  GI50: 21.7 µM
  TGI: 71.3 µM
[22]
  GI50: 21.5 µM
  TGI: > 68.2 µM
[23]
  GI50: 0.0167 µM
  TGI: 0.0331 µM
[24]
  GI50: 13.8 µM
  TGI: 59 µM
[25]
  GI50: 0.289 µM
  TGI: 42.8 µM
[26]
  GI50: 18.9 µM
  TGI: 97.1 µM
[27]
  GI50: 28.3 µM
  TGI: > 100 µM
[28]
  GI50: 21.1 µM
  TGI: > 90.6 µM
[29]
  GI50: 10 µM
  TGI: 97.9 µM
[30]
  GI50: 0.333 µM
  TGI: 6.25 µM
[31]
  GI50: 13.4 µM
  TGI: 39.8 µM
[32]
  GI50: 0.423 µM
  TGI: > 100 µM
[33]
  GI50: 13.2 µM
  TGI: 32.8 µM
[34]
  GI50: 16.2 µM
  TGI: > 72.4 µM
[35]
  GI50: 8.47 µM
  TGI: 21.6 µM
[36]
  GI50: 20.7 µM
  TGI: > 100 µM
[37]
  GI50: 25.1 µM
  TGI: > 95.3 µM
[38]
  GI50: 28.4 µM
  TGI: > 100 µM
[39]
  GI50: 3.82 µM
  TGI: > 100 µM
[40]
  GI50: 0.868 µM
  TGI: 37 µM
[41]
  GI50: 24.2 µM
  TGI: > 100 µM
[42]
  GI50: < 0.0135 µM
  TGI: 36.1 µM
[43]
  GI50: 24.9 µM
  TGI: 71.4 µM
[44]
  GI50: 17.7 µM
  TGI: > 92.9 µM
[45]
  GI50: 21.1 µM
  TGI: 88.5 µM
[46]
  GI50: 12.5 µM
  TGI: 33.8 µM
